Measured values from US20220313658A1, “YAP Inhibition for Wound Healing” (The Board of Trustees of the Leland Stanford Junior …, priority 2019, published 2022).

Experiments:
dorsal excisional wounds = experiment: Dorsal excisional wounding, wound base injected with Verteporfin: gross, histology, immunofluorescence; format: in vivo, mouse
Text: P60 En-1^Cre;R26^mTmG, En-1^Cre;Ai6, and En-1^Cre-ERT;Ai6 mice were used for cutaneous wound healing experiments in accordance with well-established protocols. Briefly, mice were anesthetized (2% isofiuorane), their dorsal hair was removed with depilatory cream, and the dorsal skin was prepped with alcohol wipes. Next, two 6 mm full-thickness circular wounds were placed through the panniculus carnosus on the dorsum of each animal at the same level, roughly 6 mm below the ears and 4 mm lateral to the midline. The wounds were then stented open by 12 mm diameter silicone rings secured around the wound perimeter with glue and 8 simple interrupted Ethilon 6-0 sutures (Ethicon). For mice receiving mechanotransduction inhibitor, 30 μL of Verteporfin (1 mg/mL) was injected locally into the wound base; PBS was injected into wounds for vehicle controls. Post-operative analgesia was accomplished with buprenorphine 0.05 mg/kg every four hours for three doses, and then as indicated. Dressings were changed every other day under anesthesia. All wounds were fully re-epithelialized by post-operative day (POD) 14, at which time the wound and surrounding skin (used as unwounded control) were harvested and processed for histology. Induction of En-1^Cre-ERT;Ai6 mice was achieved by 5 consecutive days of intraperitoneal tamoxifen injections (90% corn oil/ethanol v/v; 200 mg/kg body weight) prior to wounding. In all experiments, a minimum of 3 mice with 2 wounds each was used for each treatment group.
(§1) Tissues were fixed in 2% paraformaldehyde for 16 h at 4° C. Samples were prepared for embedding by soaking in 30% sucrose in PBS for 1 week at 4° C. Samples were then removed from the sucrose solution, and tissue blocks were prepared by embedding in Tissue Tek U.C.T. (Sakura Finetek) under dry ice to achieve rapid freezing. Frozen blocks were mounted on a Thermo Scientific CryoStar NX70 cryostat, and 10 μm-thick sections were transferred to SuperfrostfPlus adhesive slides (Fisher). For hematoxylin and eosin staining, standard protocols were used with no modifications. For immunofluorescent staining, slides were blocked for 1 hr with Power Block (Biogenex) prior to addition of the following primary antibodies: Abeam ab34710 (anti-collagen type I), Abeam ab28340 (anti-CD26), Invitrogen MA5-15915 (anti-Dlk1), Abeam ab51317 (anti-Scat), Abeam ab5694 (anti-α-SMA), Santa Cruz Biotechnology sc-101199 (anti-YAP), Abeam ab7800 (anti-CK14), and Abeam ab52625 (anti-CK19). Slides were then incubated for 1 h with Alexa Fluor 568 or Alexa Fluor 647-conjugated anti-rabbit, anti-rat, or anti-mouse antibodies (Invitrogen). Finally, slides were mounted in Fluoromount-G mounting solution with DAPI (Thermo Fisher). Brightfield images were acquired with a Leica DMI4000B microscope, while fluorescent images were acquired with a Leica DM6000 SP5 upright confocal microscope.
Given that En-1 activation was associated with adoption of a pro-fibrotic phenotype, and that YAP inhibition prevented En-1 activation in vitro, whether YAP inhibition could also block En-1 activation in vivo to reduce scarring in a mouse wounding model was assessed. Adult En-1^Cre;R26^mTmG mice were wounded, and the POD 0 wounds were treated by injecting the wound base with either PBS (control) or Verteporfin (1 mg/mL). […] Wounds were harvested for gross and histological examination at POD 14, 30, or 90. As expected, control wounds healed in a typical scarring fashion (FIG. 4, A middle row). Even after 90 days, the wound site remained bare, forming a distinct region of pale scar tissue in which no hair regrowth occurred (FIG. 4, A middle row, right image). […] This was a striking result, as a hallmark of adult mammalian (scarring) wound healing is a complete lack of regeneration of secondary appendages (e.g., hair follicles, sweat glands), as exemplified by the bare area that remained following control wound healing. […]

[1] = system: mechanically loaded dorsal incisional wounds; experiment: Mechanical loading of dorsal incisional wounds with Verteporfin treatment; format: in vivo, mouse
Method: 20 mm-long linear wounds were produced on the dorsum of P60 En-1^Cre-ERT;Ai6 mice and then closed with sutures. On POD 4, a loading device (constructed from 22 mm expansion screws and Luhr plate supports) was secured over each wound with adhesive and simple interrupted sutures. For mice receiving mechanotransduction signaling inhibitor, 30 μL of Verteporfin (1 mg/mL) was injected along the suture line both at POD 0 and POD 4; PBS was injected into wounds for vehicle controls. Device tension was increased by distracting expansion 2 mm every 2 days for 10 days total. Mice with unexpanded devices served as sham surgery controls. On POD 14, wounds were harvested and processed for histology to characterize the effects of increased wound tension on activation of ENFs to scarring pEPFs. In FIG. 2, G-I, a minimum of 4 mice was used for each experimental group.
as §1
Then, whether mechanical tension similarly promoted ENF-to-EPF transition in vivo was assessed. […]

[2] = 30 days, relative to control wounds
[3] = four treatments (POD 0, 4, 8 and 12)

For verteporfin, the Fibronectin staining (dorsal excisional wounds; 14 days, vs control wounds) was “comparatively stronger staining for fibronectin”, the col-I staining (dorsal excisional wounds; 14 days, vs control wounds) was “substantially reduced col-I staining” and the “Distribution of Dlk1+ cells” value (dorsal excisional wounds; 30 days) was “present throughout the dermis”. For the same substance, the CD26 staining (dorsal excisional wounds; [2]) was “decreased staining for CD26”, the “Number of EPFs in wounds” value (dorsal excisional wounds; [2]) was “significantly fewer EPFs” and the “Chains of YAP+ cells” value (dorsal excisional wounds; 30 days, vs control wounds) was “markedly shorter”. For the same substance, the “IF staining of appendages for cytokeratins 14 and 19 (hair follicle and sweat gland markers)” value (dorsal excisional wounds; POD 90) was “positive IF staining”, the “Oil Red O lipid staining (sebaceous glands)” value (dorsal excisional wounds; POD 90) was “positive lipid staining” and the “Regrowth of dermal appendages” value (dorsal excisional wounds; POD 90 (FIG. 4, C)) was “regrowth of hair follicles and other dermal appendages”. The “Fibroblast lineage content of wounds (ENFs vs EPFs)” value (dorsal excisional wounds; after 14 days) was “almost exclusively ENFs”, the “H&E histology: dermal appendage structures” value (dorsal excisional wounds; by 1 and 3 months) was “numerous structures morphologically resembling hair follicles or sweat glands” and the “H&E histology: fibrosis and cellularity” value (dorsal excisional wounds; by 2 weeks) was “reduced fibrosis and increased cellularity”. For the same substance, the Hair regrowth (dorsal excisional wounds; [3]) was “grossly reduced”, the Wound closure (dorsal excisional wounds; [3]) was “delayed” and the “Hair growth within healed wound” value (dorsal excisional wounds; single dose POD 0, by 30 days) was “substantial hair growth within the healed wound”. The “Gross appearance of healed wound” value (dorsal excisional wounds; single dose POD 0, by 90 days) was “grossly indistinguishable from unwounded skin”, the Wound closure rate (dorsal excisional wounds; single injection 1 mg/mL into wound base at POD 0, vs PBS) was “did not significantly affect wound closure rate” and the “Number of EPFs in wounds” value (dorsal excisional wounds; three months of healing) was “dramatically reduced numbers of EPFs”. For the same substance, the “YAP+ cells” value (dorsal excisional wounds; three months of healing) was “rare YAP^+ cells”, the “α-SMA+ cells” value (dorsal excisional wounds; three months of healing) was “virtually no α-SMA^+ cells” and the “Wound closure rates, gross appearance and ECM features” value (dorsal excisional wounds; two doses (POD 0 and 4)) was “comparable to those of wounds treated with single Verteporfin dose”. For the same substance, the “Gross appearance of mechanically loaded wounds” value ([1]; 30 μL of 1 mg/mL injected at POD 0 and POD 4, harvested POD 14) was “grossly resembled control (non-mechanically loaded) wounds”, the “Number of pEPFs (GFP+ cells) in wounds” value ([1]; compared to mechanically loaded, non-Verteporfin treated wounds, POD 14) was “significantly fewer pEPFs” and the “YAP and a-SMA expression (immunofluorescent staining)” value ([1]; compared to untreated mechanically loaded wounds, POD 14) was “decreased YAP and a-SMA expression”. The “Number of YAP+ cells in wounds” value ([1]; mechanically loaded wounds, POD 14) was “significantly fewer YAP+ cells”.
